Assay results reported in patent publication US8129399B2, “Aminopyrimidines useful as kinase inhibitors” (Vertex Pharmaceuticals Incorporated, priority 2005, dated 2012).

Experiments:
Format in all cases: biochemical
JAK3 = biological target: T1, JAK3 (Homo sapiens, UniProt P52333); experiment: JAK3 inhibition assay
T1 sequence (P52333 1-1124): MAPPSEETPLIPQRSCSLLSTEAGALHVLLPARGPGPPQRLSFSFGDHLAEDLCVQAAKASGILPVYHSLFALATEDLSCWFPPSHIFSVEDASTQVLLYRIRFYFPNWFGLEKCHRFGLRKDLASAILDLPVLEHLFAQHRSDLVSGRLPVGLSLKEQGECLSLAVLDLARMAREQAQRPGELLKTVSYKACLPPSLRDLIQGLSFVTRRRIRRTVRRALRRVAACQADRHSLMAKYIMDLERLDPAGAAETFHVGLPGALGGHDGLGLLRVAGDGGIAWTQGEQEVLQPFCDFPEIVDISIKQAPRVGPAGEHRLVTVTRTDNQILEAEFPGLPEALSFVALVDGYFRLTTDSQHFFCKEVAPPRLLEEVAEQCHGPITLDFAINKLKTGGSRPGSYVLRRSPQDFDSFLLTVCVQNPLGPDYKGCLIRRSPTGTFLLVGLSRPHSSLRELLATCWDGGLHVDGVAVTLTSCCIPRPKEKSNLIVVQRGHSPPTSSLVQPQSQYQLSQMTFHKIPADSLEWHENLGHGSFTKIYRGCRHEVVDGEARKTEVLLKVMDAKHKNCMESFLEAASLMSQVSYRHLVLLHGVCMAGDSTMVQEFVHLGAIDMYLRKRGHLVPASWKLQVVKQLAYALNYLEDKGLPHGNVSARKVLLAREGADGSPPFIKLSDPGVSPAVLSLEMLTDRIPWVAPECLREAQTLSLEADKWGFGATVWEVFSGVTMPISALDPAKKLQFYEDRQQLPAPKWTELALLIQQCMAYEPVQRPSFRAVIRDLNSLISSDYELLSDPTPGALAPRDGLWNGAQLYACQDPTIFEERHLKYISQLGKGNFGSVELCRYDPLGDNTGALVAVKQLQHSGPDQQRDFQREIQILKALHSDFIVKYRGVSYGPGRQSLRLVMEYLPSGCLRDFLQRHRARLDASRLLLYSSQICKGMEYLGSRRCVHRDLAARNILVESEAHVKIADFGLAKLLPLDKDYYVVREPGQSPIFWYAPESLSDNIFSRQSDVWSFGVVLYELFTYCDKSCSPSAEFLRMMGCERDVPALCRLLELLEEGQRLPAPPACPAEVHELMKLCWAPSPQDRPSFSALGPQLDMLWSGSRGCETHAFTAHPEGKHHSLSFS
Description: Reactions were carried out in a kinase buffer containing 100 mM HEPES (pH 7.4), 1 mM DTT, 10 mM MgCl2, 25 mM NaCl, and 0.01% BSA. Substrate concentrations in the assay were 5 μM ATP (200 uCi/μmole ATP) and 1 μM poly(Glu)4Tyr. Reactions were carried out at 25° C. and 1 nM JAK3.
To each well of a 96 well polycarbonate plate was added 1.5 μl of a candidate JAK3 inhibitor along with 50 μl of kinase buffer containing 2 μM poly(Glu)4Tyr and 10 μM ATP. This was then mixed and 50 μl of kinase buffer containing 2 nM JAK3 enzyme was added to start the reaction. After 20 minutes at room temperature (25 C), the reaction was stopped with 50 μl of 20% trichloroacetic acid (TCA) that also contains 0.4 mM ATP. The entire contents of each well were then transferred to a 96 well glass fiber filter plate using a TomTek Cell Harvester. After washing, 60 μl of scintillation fluid was added and ^33P incorporation detected on a Perkin Elmer TopCount.

[1] = biological target: N-terminally truncated (Δ 27) Abl kinase (Homo sapiens, UniProt P00519); experiment: Abl kinase activity inhibition assay, coupled enzyme
Sequence of N-terminally truncated (Δ 27) Abl kinase (P00519 28-1130 limits assumed, stated change not applied): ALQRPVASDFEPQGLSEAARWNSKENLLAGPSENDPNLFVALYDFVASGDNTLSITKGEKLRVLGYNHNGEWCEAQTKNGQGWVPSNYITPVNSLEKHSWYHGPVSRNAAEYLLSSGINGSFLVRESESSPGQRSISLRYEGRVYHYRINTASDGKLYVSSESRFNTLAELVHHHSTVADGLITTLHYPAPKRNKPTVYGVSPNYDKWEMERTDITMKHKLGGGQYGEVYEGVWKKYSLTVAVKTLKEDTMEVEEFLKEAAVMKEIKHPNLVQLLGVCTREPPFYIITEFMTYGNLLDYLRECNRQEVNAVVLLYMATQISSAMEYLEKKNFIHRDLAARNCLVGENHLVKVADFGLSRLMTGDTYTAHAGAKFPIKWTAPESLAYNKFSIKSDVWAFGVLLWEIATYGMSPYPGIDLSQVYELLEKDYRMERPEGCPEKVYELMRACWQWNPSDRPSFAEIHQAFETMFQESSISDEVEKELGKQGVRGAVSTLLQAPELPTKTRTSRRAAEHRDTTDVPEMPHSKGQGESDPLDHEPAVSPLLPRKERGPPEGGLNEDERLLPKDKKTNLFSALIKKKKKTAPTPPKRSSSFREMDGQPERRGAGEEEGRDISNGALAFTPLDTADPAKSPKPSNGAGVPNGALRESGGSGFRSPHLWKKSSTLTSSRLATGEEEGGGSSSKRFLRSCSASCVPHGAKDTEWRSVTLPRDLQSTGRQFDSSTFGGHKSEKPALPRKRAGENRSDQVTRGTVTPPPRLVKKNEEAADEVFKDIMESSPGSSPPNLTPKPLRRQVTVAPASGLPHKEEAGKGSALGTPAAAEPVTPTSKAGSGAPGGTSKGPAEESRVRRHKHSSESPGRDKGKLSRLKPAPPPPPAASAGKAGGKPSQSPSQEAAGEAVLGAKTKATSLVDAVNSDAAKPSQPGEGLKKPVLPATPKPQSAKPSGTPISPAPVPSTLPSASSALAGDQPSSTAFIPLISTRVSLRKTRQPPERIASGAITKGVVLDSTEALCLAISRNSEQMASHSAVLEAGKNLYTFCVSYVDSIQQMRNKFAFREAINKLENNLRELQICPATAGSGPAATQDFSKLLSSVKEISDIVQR
Description: Reactions were carried out in a solution containing 100 mM HEPES (pH 7.5), 10 mM MgCl2, 25 mM NaCl, 300 μM NADH, 1 mM DTT and 3% DMSO. […] Final concentrations of the components of the coupled enzyme system were 2.5 mM phosphoenolpyruvate, 200 μM NADH, 60 μg/ml pyruvate kinase and 20 μg/ml lactate dehydrogenase.
An assay stock buffer solution was prepared containing all of the reagents listed above with the exception of ATP and the test compound of interest. […] Rates of reaction were obtained using a Molecular Devices Spectramax plate reader (Sunnyvale, Calif.) over 10 min at 30° C. The Ki values were determined from the residual rate data as a function of inhibitor concentration using nonlinear regression (Prism 3.0, Graphpad Software, San Diego, Calif.).

MLK1 = MLK1 (Homo sapiens, UniProt P80192); experiment: MLK1 inhibition screen; conditions: ATP at or close to Km
Sequence of MLK1 (P80192 whole entry, species assumed): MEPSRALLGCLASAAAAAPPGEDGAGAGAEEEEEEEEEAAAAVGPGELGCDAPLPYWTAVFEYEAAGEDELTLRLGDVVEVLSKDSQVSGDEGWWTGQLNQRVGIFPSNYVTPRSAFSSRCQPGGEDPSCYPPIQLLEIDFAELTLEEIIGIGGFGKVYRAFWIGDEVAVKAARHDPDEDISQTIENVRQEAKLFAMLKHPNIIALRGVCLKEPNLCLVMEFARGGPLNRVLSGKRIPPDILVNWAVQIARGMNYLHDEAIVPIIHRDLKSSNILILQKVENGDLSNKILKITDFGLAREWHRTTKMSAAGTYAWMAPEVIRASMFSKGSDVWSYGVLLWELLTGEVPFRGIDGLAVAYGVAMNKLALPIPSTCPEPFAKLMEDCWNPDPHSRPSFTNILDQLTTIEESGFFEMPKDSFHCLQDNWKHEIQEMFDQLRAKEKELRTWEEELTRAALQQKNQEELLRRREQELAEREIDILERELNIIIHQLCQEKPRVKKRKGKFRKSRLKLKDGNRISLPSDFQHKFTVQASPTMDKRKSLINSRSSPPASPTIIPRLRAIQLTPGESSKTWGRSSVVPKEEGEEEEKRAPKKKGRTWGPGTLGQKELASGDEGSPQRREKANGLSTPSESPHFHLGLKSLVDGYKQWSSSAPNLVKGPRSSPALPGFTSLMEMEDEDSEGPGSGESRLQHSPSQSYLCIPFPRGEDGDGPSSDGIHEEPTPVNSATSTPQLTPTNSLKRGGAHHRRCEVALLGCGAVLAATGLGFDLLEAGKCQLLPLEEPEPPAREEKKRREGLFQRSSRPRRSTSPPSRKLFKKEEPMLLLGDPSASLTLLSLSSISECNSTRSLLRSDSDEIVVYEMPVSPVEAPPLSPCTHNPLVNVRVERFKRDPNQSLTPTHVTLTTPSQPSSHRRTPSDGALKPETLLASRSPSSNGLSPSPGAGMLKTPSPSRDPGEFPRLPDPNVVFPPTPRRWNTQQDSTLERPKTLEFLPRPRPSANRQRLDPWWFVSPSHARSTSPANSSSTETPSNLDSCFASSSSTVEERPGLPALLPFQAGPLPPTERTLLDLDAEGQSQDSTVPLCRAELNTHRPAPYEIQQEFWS
From the text: (§1) Compound(s) were screened for their ability to inhibit Arg (Abl-2), FGFR1, MLK1, Tie2, and TrkA using screening methods known to one of ordinary skill in the art. All of the above enzymes were screened with ATP concentrations at or close to the Km for ATP.

Tie2 = Tie2 (Homo sapiens, UniProt Q02763); experiment: Tie2 inhibition screen; conditions: ATP at or close to Km
From the text: as §1

FGFR1 = FGFR1 (Homo sapiens, UniProt P11362); experiment: FGFR1 inhibition screen; conditions: ATP at or close to Km
Sequence of FGFR1 (P11362 22-822, species assumed): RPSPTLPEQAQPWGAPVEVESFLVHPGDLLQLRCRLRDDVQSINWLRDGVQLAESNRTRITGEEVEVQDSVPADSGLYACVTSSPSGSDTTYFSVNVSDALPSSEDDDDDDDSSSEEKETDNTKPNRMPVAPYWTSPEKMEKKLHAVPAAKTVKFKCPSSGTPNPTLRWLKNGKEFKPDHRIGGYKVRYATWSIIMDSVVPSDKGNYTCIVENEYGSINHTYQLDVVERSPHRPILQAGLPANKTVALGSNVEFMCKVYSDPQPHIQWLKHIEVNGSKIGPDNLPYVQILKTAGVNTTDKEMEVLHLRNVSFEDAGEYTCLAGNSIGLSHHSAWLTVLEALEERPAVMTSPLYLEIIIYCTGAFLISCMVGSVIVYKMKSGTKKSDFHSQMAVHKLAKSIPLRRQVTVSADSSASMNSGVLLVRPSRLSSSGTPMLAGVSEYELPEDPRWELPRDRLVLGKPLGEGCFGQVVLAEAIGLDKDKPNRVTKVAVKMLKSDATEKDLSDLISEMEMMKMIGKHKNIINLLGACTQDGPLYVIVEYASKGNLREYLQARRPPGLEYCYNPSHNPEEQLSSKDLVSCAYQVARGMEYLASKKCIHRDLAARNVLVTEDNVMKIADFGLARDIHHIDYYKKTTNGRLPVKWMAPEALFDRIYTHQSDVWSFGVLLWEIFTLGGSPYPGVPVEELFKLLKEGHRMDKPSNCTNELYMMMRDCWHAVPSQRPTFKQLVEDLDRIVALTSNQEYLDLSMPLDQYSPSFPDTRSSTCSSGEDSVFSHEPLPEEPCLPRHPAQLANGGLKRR
From the text: as §1

Arg (Abl-2) = Arg (Abl-2) (Homo sapiens, UniProt P42684); experiment: Arg (Abl-2) inhibition screen; conditions: ATP at or close to Km
Sequence of Arg (Abl-2) (P42684 whole entry, species assumed): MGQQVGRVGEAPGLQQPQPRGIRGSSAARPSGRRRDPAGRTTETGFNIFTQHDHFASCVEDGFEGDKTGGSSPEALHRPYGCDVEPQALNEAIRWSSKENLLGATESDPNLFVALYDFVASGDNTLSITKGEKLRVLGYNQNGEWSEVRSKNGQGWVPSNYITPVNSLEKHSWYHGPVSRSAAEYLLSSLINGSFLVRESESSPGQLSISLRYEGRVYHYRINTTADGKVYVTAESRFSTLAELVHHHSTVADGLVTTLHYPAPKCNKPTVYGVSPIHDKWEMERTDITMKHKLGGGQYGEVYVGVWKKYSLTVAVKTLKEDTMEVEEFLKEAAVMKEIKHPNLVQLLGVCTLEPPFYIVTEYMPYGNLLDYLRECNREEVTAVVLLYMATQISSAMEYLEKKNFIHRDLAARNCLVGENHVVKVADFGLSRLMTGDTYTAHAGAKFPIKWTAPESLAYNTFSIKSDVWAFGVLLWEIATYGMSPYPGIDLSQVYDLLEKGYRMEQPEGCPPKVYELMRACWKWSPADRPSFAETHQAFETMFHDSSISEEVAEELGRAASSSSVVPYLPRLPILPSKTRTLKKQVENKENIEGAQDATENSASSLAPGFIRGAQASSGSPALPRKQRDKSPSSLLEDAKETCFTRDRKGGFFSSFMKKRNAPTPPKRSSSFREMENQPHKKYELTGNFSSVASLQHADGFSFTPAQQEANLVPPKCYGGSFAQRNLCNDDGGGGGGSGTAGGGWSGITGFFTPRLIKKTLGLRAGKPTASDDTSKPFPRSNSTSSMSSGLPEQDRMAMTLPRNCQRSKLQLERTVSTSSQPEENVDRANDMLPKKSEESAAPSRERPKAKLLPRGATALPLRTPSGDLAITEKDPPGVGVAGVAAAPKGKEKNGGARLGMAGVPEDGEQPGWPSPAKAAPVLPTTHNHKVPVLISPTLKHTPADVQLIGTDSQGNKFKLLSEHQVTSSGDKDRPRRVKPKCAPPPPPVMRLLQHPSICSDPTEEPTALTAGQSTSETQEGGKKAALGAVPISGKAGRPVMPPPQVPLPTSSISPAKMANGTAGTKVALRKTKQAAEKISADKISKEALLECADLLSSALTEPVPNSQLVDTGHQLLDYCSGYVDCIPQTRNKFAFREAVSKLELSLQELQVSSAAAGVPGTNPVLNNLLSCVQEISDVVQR
From the text: as §1

TrkA = TrkA (Homo sapiens, UniProt P04629); experiment: TrkA inhibition screen; conditions: ATP at or close to Km
Sequence of TrkA (P04629 33-796, species assumed): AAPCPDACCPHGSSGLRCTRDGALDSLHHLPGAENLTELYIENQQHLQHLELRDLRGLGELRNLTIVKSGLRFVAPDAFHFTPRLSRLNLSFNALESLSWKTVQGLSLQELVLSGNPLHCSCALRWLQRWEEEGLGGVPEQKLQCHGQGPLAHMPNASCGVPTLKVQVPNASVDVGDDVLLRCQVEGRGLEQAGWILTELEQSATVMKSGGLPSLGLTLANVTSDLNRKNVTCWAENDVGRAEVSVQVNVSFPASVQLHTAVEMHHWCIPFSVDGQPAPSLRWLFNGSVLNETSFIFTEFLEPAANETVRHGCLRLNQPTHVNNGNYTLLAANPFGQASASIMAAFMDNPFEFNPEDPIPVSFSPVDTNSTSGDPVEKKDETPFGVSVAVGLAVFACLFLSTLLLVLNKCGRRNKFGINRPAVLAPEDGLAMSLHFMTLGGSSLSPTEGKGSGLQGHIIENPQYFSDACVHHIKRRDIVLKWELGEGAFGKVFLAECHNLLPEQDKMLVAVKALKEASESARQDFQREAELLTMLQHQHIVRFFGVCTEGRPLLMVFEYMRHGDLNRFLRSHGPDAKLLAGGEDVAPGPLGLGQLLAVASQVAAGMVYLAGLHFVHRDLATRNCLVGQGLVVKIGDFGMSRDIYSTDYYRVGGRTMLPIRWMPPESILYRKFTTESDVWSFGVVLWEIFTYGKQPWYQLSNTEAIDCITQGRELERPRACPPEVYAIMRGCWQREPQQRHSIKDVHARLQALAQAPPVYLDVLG
From the text: as §1

[2] = Table 6, introduced as Ki values

Ki [1] [nM] | Compound | Ki (JAK3) [nM] | further results
– | CCC(=O)Nc1ccc(Sc2nc(Nc3cc(C)n[nH]3)cc(N3CC(O)(C(C)C)C3)n2)cc1 [Compound I-5] | 100 | –
– | CCC(=O)Nc1ccc(Sc2nc(Nc3cc(C)n[nH]3)cc(N3CC(O)(C(C)CC)C3)n2)cc1 (centres unmarked) [Compound I-6] | 190 | –
– | CCC(=O)Nc1ccc(Sc2nc(Nc3cc(C4CC4)[nH]n3)cc(N3CC(O)(C4CC4)C3)n2)cc1 [Compound I-7] | 37 | –
30 | Cc1cc(Nc2cc(N3CC(O)(C4CC4)C3)nc(Sc3ccc(NC(=O)C4CC4)cc3)n2)n[nH]1 [Compound I-8] | 140 | –
– | Cc1cc(Nc2cc(N3CC(O)(C4CC4)C3)nc(Sc3ccc(NC(=O)C4CCCC4)cc3)n2)[nH]n1 [Compound I-9, N-(4-((4-(3-methyl-1H-pyrazol-5-ylamino)-6-(3-cyclopropyl-3-hydroxyazetidin-1-yl)pyrimidin-2-yl)sulfanyl)phenyl)cyclopentanecarboxamide] | 150 | –
– | O=C(Nc1ccc(Sc2nc(Nc3cc(C4CC4)[nH]n3)cc(N3CC(O)(C4CC4)C3)n2)cc1)C1CC1 [Compound I-10] | 51 | –
– | Cc1cc(Nc2cc(N3CC(O)(C4CC4)C3)nc(Sc3ccc(NC(=O)C4CC4)cc3F)n2)[nH]n1 [Compound I-11, N-(4-((4-(3-methyl-1H-pyrazol-5-ylamino)-6-(3-cyclopropyl-3-hydroxyazetidin-1-yl)pyrimidin-2-yl)sulfanyl)-3-fluorophenyl)cyclopropanecarboxamide] | 56 | –
– | Cc1cc(Nc2cc(N3CC(O)(C4CC4)C3)nc(Sc3ccc(NC(=O)C4CC4(F)F)cc3)n2)[nH]n1 (centres unmarked) [Compound I-12] | 28 | –
88 | Cc1cc(Nc2cc(N3CC(F)(C4CC4)C3)nc(Sc3ccc(NC(=O)C4CC4)cc3)n2)n[nH]1 [Compound I-13] | 290 | –
23 | Cc1cc(Nc2cc(N3CC(F)(C4CC4)C3)nc(Sc3ccc(NC(=O)CC(F)(F)F)cc3)n2)[nH]n1 [Compound I-14, N-(4-(4-(3-methyl-1H-pyrazol-5-ylamino)-6-(3-cyclopropyl-3-fluoroazetidin-1-yl)pyrimidin-2-ylthio)phenyl)-3,3,3-trifluoropropanamide] | 77 | IC50 (MLK1; Table 5): 27 nM; IC50 (MLK1; [2]): 14 nM; IC50 (Tie2; Table 5): 89 nM; IC50 (Tie2; [2]): 47 nM; IC50 (FGFR1; Table 5): 121 nM; IC50 (FGFR1; [2]): 65 nM; IC50 (Arg (Abl-2); Table 5): 14 nM; IC50 (Arg (Abl-2); [2]): 3.3 nM; IC50 (TrkA; Table 5): 18 nM; IC50 (TrkA; [2]): 5 nM
– | Cc1cc(Nc2cc(N3CC(F)(C4CC4)C3)nc(Sc3ccc(NC(=O)C4CC4)cc3F)n2)n[nH]1 [Compound I-18] | 220 | IC50 (FGFR1; Table 5): 22 nM; IC50 (Arg (Abl-2); Table 5): 53 nM
– | Cc1cc(Nc2cc(N3CC(F)(C4CC4)C3)nc(Sc3ccc(NC(=O)CC4CC4)cc3)n2)[nH]n1 [Compound I-19] | 620 | IC50 (FGFR1; Table 5): 35 nM; IC50 (Arg (Abl-2); Table 5): 130 nM
– | Cc1cc(Nc2cc(N3CC(F)(C4CC4)C3)nc(Sc3ccc(NC(=O)C4CC4(F)F)cc3)n2)[nH]n1 (centres unmarked) [Compound I-20] | 110 | –
– | Cc1cc(Nc2cc(N3CC(F)(C4CC4)C3)nc(Sc3ccc(NC(=O)CC(F)(F)F)nc3)n2)[nH]n1 [Compound I-21, N-(5-(4-(3-methyl-1H-pyrazol-5-ylamino)-6-(3-cyclopropyl-3-fluoroazetidin-1-yl)pyrimidin-2-ylthio)pyridin-2-yl)-3,3,3-trifluoropropanamide] | 100 | –

Compound | Ki [1] [nM] | Ki (JAK3) [nM] | further results
CCC(=O)Nc1ccc(Sc2nc(Nc3cc(C)n[nH]3)cc(N3CC(O)(C4CC4)C3)n2)cc1 [Compound I-2] | 64 | 160 | –
CCC(=O)Nc1ccc(Sc2nc(Nc3cc(C)n[nH]3)cc(N3CC(O)(C4CCCC4)C3)n2)cc1 [Compound I-3] | 30 | 150 | –
